Legend:
[1] = cited from earlier work
normal patients = details: cited from earlier work
[2] = test system: cynomolgus macaque model of glaucoma; experiment: Retinal nerve fiber layer thickness by OCT in cynomolgus macaque model of glaucoma; assay type: in vivo
Method: (§1) Three weeks before the first laser trabeculoplasty, IOP was measured via a tomometer (SPHPR-320-61), once per week for three weeks. The first laser trabeculoplasty was performed in one eye for each macaque. Two weeks later, laser trabeculoplasty was repeated in the same eye (Week 0).
(§2) One week after the second laser trabeculoplasty (Week 1), IOP was measured and retinal nerve fiber layer (RNFL) thickness was measured via optical coherence tomography (OCT; RS3000 Advance, Nidek Co. Ltd., Gamagoori, Japan) (SPHPR- 320-58). The day after group assignment, the eyes were instilled with either vehicle, KR-67607 or brimonidine twice a day. On Day 1, the effect of treatment on IOP over time was measured before treatment and 1, 2, 4, and 8 hrs. after instillation. At the same time, blood samples were obtained. From the effects of dosing observed on Day 1, it was determined that 2 hrs. was a reasonable time time-to-test following instillation for subsequent observations.
(§3) Intraocular pressures were obtained at Weeks 2, 3, 4, 5, 7 and 9. Optical coherence tomography and color fundus photography (CFP) were performed at Weeks 1, 3, 5, 7, and 9 (SPHPR-320-56).

[3] = test system: cynomolgus macaque model of glaucoma; experiment: Funduscopy in cynomolgus macaque model of glaucoma; assay type: in vivo
Method: as §1, §2, §3

[4] = test system: cynomolgus macaque model of glaucoma; experiment: Intraocular pressure in cynomolgus macaque model of glaucoma (laser trabeculoplasty); assay type: in vivo
Method: as §1, §2, §3
Following measurements at Week 9, G3 macaques was randomized into two groups based on IOP, and the effect of KR-67607 (1.5 mg/mL, 3.0 mg/mL) on IOP was evaluated.

For “2-hydroxypropyl-β-cyclodextrin [HP-β-CD]”, the solubility in water [1] is listed as “more than 1 g/ml”.

For `CC1(C)[C@@H](OC(=O)CCC(=O)O)CC[C@]2(C)[C@H]3C(=O)C=C4[C@@H]5C[C@@](C)(C(=O)O)CC[C@]5(C)CC[C@@]4(C)[C@]3(C)CC[C@@H]12` [carbenoxolone], the “reduce intraocular pressure to levels as low as” value (normal patients) is listed as 20%.

In the case of “Brimonidine tartrate [reference compound]”, the “number of eyes with RNFL thickness greater than 50% compared to baseline” value ([2]; Week 9, 6 eyes per group) is reported as 1, the “RNFL thinning in glaucomatous eyes” value ([2]; repeated treatment, compared to vehicle-treated (G1)) is reported as “appeared to inhibit” and the “animals with a lesser degree of cupping compared to G1” value ([3]; Week 3 to Week 5) is reported as “three animals”. For the same compound, the “animals with a small or lesser degree of cupping” value ([3]; Week 9) was “one animal”, the “maximum decrease of IOP, contralateral normal eye” value ([4]; Day 1 dosing, 2 hours after dosing) was 4.1±0.9 mmHg and the “maximum decrease of IOP, glaucomatous eye” value ([4]; Day 1 dosing, 2 hours after instillation) was 19.5±2.7 mmHg. The “effect on trough IOP value” ([4]; glaucomatous eyes, repeated treatment twice a day, brimonidine tartrate 0.1%, KR-67607 1.5 mg/mL) was “did not significantly affect” and the “maximum decrease of IOP, normal eye” value ([4]; over weeks) was 4.9±0.8 mmHg.

— US20240108632A1, “PHARMACEUTICAL COMPOSITION FOR ADMINISTRATION AS OPHTHALMIC DROP TO PATIENT REQUIRING OPTIC NERVE PROTECTION” (PINOTBIO, INC., priority 2020, published 2024)
